Experimental data reported in patent US20240199647A1, “ANTI-VIRAL COMPOUNDS” (Aligos Therapeutics, Inc., priority 2022, published 2024).
Read-outs that look alike come from different tables or passages of the source.

Experiments:
[1] = test system: SARS-CoV-2 B.1.1.7 lineage; experiment: microbe, parasite or virus in culture; format: cell-based; conditions: Severe acute respiratory syndrome coronavirus 2, Table C, SARS-CoV-2 B.1.1.7 in A549-dual_ACE2_TMPRSS2 cells, read-out: A549-dual_ACE2_TMPRSS2 (EC50)
in vitro = conditions: human
SARS-Cov-2 3CLpro = SARS-Cov-2 3CLpro (Severe acute respiratory syndrome coronavirus 2, UniProt P0DTD1); experiment: biochemical; conditions: Table A, class symbols, read-out: SARS-Cov-2 (IC50)
[2] = Cytotoxicity in HeLa cells without addition of OC43 virus (in parallel); conditions: human, HeLa cells, without OC43 virus
[3] = test system: human beta-coronavirus OC43; experiment: OC43 Coronavirus Assay in HeLa cells (antiviral, cytopathic effect, cell-titer-glo); format: cell-based; conditions: Betacoronavirus 1, OC43, HeLa, Table B; OC43 coronavirus in HeLa cells, class symbols; read-out: EC50

Compound | EC50 ([1]; cells given as a bound) [nM] | CC50 (in vitro) [nM] | IC50 (SARS-Cov-2 3CLpro) [nM] | CC50 at 6 days [2] [µM] | EC50 [3] [nM] | EC50 ([1]; class symbols) [nM]
CN1CCC[C@H]1C(=O)N(C)[C@@H](CC1CC1)C(=O)N1C[C@@]2(C[C@H]1C#N)Oc1cc(F)cc(F)c1NC2=O [Compound 131] | > 1000 | > 1000 | 20 to 200 | > 10 | 1000 to 10000 | –
CN(C(=O)CCN1CCOCC1)[C@@H](CC1CC1)C(=O)N1C[C@@]2(C[C@H]1C#N)Oc1cc(F)cc(F)c1NC2=O [Compound 132] | – | > 1000 | 20 to 200 | > 10 | 1000 to 10000 | 100 to 1000
CN(C(=O)c1cc2cccc(Cl)c2[nH]1)[C@@H](CC1CC1)C(=O)N1C[C@@]2(C[C@H]1C#N)Oc1cc(F)cc(F)c1NC2=O [Compound 133] | – | > 1000 | < 20 | > 10 | 100 to 1000 | 100 to 1000
COc1ccc(Cl)c2[nH]c(C(=O)N(C)[C@@H](CC3CC3)C(=O)N3C[C@@]4(C[C@H]3C#N)Oc3cc(F)cc(F)c3NC4=O)cc12 [Compound 135] | – | > 1000 | < 20 | > 10 | < 100 | 100 to 1000
CN(C(=O)C(O)c1ccc(F)cc1)[C@@H](CC1CC1)C(=O)N1C[C@@]2(C[C@H]1C#N)Oc1cc(F)cc(F)c1NC2=O (some centres unmarked) [Compound 136] | – | > 1000 | < 20 | > 10 | 100 to 1000 | 100 to 1000
CN(C(=O)c1cc2cccnc2[nH]1)[C@@H](CC1CC1)C(=O)N1C[C@@]2(C[C@H]1C#N)Oc1cc(F)cc(F)c1NC2=O [Compound 137] | – | > 1000 | 20 to 200 | > 10 | 1000 to 10000 | 100 to 1000
CN(C(=O)C(O)C(C)(C)C)[C@@H](CC1CC1)C(=O)N1C[C@@]2(C[C@H]1C#N)Oc1cc(F)cc(F)c1NC2=O (some centres unmarked) [Compound 138] | – | > 1000 | < 20 | > 10 | 100 to 1000 | 100 to 1000
COC(=O)N[C@@H](CC1CC1)C(=O)N(C)[C@@H](CC1CC1)C(=O)N1C[C@@]2(C[C@H]1C#N)Oc1ccccc1CNC2=O [Compound 139] | – | > 1000 | < 20 | > 10 | < 100 | 100 to 1000
CN(C(=O)c1cc2c(F)cc(F)c(F)c2[nH]1)[C@@H](CC1CC1)C(=O)N1C[C@@]2(C[C@H]1C#N)Oc1ccccc1CNC2=O [Compound 140] | – | > 1000 | < 20 | > 10 | < 100 | < 100
CN(C(=O)[C@H](CC1CC1)NC(=O)C(F)(F)F)[C@@H](CC1CC1)C(=O)N1C[C@@]2(C[C@H]1C#N)Oc1cccc(F)c1CNC2=O [Compound 141] | – | > 1000 | < 20 | > 10 | < 100 | 100 to 1000
CN(C(=O)[C@H](CC1CC1)NC(=O)C(F)(F)F)[C@@H](CC1CC1)C(=O)N1C[C@@]2(C[C@H]1C#N)Oc1cc(F)ccc1CNC2=O [Compound 142] | – | > 1000 | < 20 | > 10 | < 100 | < 100
CN(C(=O)[C@H](CC1CC1)NC(=O)C(F)(F)F)[C@@H](CC1CC1)C(=O)N1C[C@@]2(C[C@H]1C#N)Oc1cc(C(=O)N3CCOCC3)ccc1NC2=O [Compound 143] | – | > 1000 | < 20 | > 10 | < 100 | 100 to 1000
C[C@H](NC(=O)C(F)(F)F)C(=O)N(C)[C@@H](CC1CC1)C(=O)N1C[C@@]2(C[C@H]1C#N)Oc1cc(F)cnc1NC2=O [Compound 144] | – | > 1000 | < 20 | > 10 | < 100 | 100 to 1000
Cc1cn([C@@H](CC2CC2)C(=O)N(C)[C@@H](CC2CC2)C(=O)N2C[C@@]3(C[C@H]2C#N)Oc2cc(F)cc(F)c2NC3=O)nn1 [Compound 146] | – | > 1000 | < 20 | > 10 | 100 to 1000 | 100 to 1000
C[C@H](NC(=O)C(F)(F)F)C(=O)N(C)[C@@H](CC1CC1)C(=O)N1C[C@@]2(C[C@H]1C#N)Oc1cc(Cl)cnc1NC2=O [Compound 147] | – | > 1000 | < 20 | > 10 | < 100 | < 100
COc1ccc(C[C@@H](NC(=O)C(F)(F)F)C(=O)N(C)[C@@H](CC2CC2)C(=O)N2C[C@@]3(C[C@H]2C#N)Oc2cccnc2NC3=O)cc1 [Compound 149] | – | > 1000 | < 20 | > 10 | < 100 | < 100
CN(C(=O)[C@H](CC(C)(C)C)n1cc(C2CC2)nn1)[C@@H](CC1CC1)C(=O)N1C[C@@]2(C[C@H]1C#N)Oc1cc(F)cc(F)c1NC2=O [Compound 150] | – | > 1000 | < 20 | > 10 | < 100 | < 100
C[C@H](NC(=O)C(F)(F)F)C(=O)N(C)[C@H](C(=O)N1C[C@@]2(C[C@H]1C#N)Oc1cc(F)cc(F)c1NC2=O)[C@@H](C)OC(C)(C)C [Compound 154] | > 1000 | > 1000 | 200 to 2000 | > 10 | 1000 to 10000 | –
C[C@@H](C(=O)N(C)[C@@H](CC1CC1)C(=O)N1C[C@@]2(C[C@H]1C#N)Oc1cccnc1NC2=O)n1cc(C2CC2)nn1 [Compound 155] | – | > 1000 | 20 to 200 | > 10 | 100 to 1000 | 100 to 1000
CN(C(=O)[C@@H](COC(C)(C)C)NC(=O)C(F)(F)F)[C@@H](CC1CC1)C(=O)N1C[C@@]2(C[C@H]1C#N)Oc1cccnc1NC2=O [Compound 156] | – | > 1000 | < 20 | > 10 | < 100 | 100 to 1000
CN(C(=O)[C@H](CC1CC1)n1cc(C(F)(F)F)nn1)[C@@H](CC1CC1)C(=O)N1C[C@@]2(C[C@H]1C#N)Oc1cc(F)cc(F)c1NC2=O [Compound 157] | – | > 1000 | < 20 | > 10 | < 100 | < 100
CN(C(=O)[C@H](COC(C)(C)C)NC(=O)C(F)(F)F)[C@@H](CC1CC1)C(=O)N1C[C@@]2(C[C@H]1C#N)Oc1cc(F)cc(F)c1NC2=O [Compound 158] | – | > 1000 | < 20 | > 10 | < 100 | < 100
C[C@@H](OC(C)(C)C)[C@H](NC(=O)C(F)(F)F)C(=O)N(C)[C@@H](CC1CC1)C(=O)N1C[C@@]2(C[C@H]1C#N)Oc1cc(F)cc(F)c1NC2=O [Compound 159] | – | > 1000 | < 20 | > 10 | 100 to 1000 | < 100
C[C@H](NC(=O)C(F)(F)F)C(=O)N(C)[C@@H](CC1CC1)C(=O)N1C[C@@]2(C[C@H]1C#N)Oc1ccccc1NC2=O [Compound 160] | – | > 1000 | < 20 | > 10 | < 100 | < 100
C[C@H](NC(=O)C(F)(F)F)C(=O)N(C)[C@@H](CC1CC1)C(=O)N1C[C@@]2(C[C@H]1C#N)Oc1ccccc1CNC2=O [Compound 163] | – | > 1000 | < 20 | > 10 | < 100 | 100 to 1000
